These results are taken from US7161064B2, “Method for producing stably transformed duckweed using microprojectile bombardment” (North Carolina State University, priority 1997, dated 2007).

Test [1] relates to L. minor callus cultures, strain 8744 and strain 8627. The experiment in a line: Frond regeneration from L. minor callus cultures. The test is classed as cell-based, Lemna minor. The following applies: 8 weeks. As for the experimental part:
The effect of medium composition on frond regeneration from L. minor callus cultures was also tested. Seven media formulations were tested: (1) water agar, (2) water agar with 100 μM adenine sulfate, (3) water agar with 10 μM BA, (4) water agar with 10 μM BA and 1 μM IBA, (5) half-strength SH, (6) half-strength SH with 10 μM BA, and (7) half-strength SH with 10 μM BA and 1 μM IBA. […] Callus was incubated on the seven different media for 8 weeks, with continual observation for the development of fronds.

Test [2] relates to Lemna gibba G3. The experiment in a line: Callus induction from Lemna gibba G3 fronds on solid medium with plant growth regulators. The test is classed as cell-based. As for the experimental part: Duckweed fronds were grown in liquid Hoagland's medium (Hoagland and Snyder, Proc. Amer. Soc. Hort. Sci. 30, 288 (1933)) containing 3% sucrose for two weeks at 23° C. under a 16 hr light/8 hr dark photoperiod with light intensity of approximately 40 μmol/m^2·sec prior to experimentation. For callus induction, eighteen, 100 ml portions of Murashige and Skoog basal medium (Murashige and Skoog, Physiol. Plant. 15, 473 (1962)) containing 3% sucrose, 0.15% Gelrite and 0.4% Difco Bacto-agar were prepared with 2,4-D concentrations of 10, 20 and 50 μM and BA concentrations of 0, 0.01, 0.1, 1.0, 2.0, and 10.0 μM. All media were pH adjusted to 5.8, autoclaved at 121° C. for 20 minutes, cooled, and each 100 ml was poured into 4, 100 mm×15 mm petri dishes.
(§1) A three 2,4-D concentrations×six BA concentrations, full-factorial experimental design (18 treatments in total) with four replications, with one petri dish per replication and 5 fronds per petri dish was used. For callus induction, 5 individual duckweed fronds were placed abaxial side down on each plate of medium. The 72 plates were incubated at 23° C., for 27 days under a 16 hr light/8 hr dark photoperiod with light intensity of approximately 40 μmol/m^2·sec. After 27 days the duckweed tissue was transferred to fresh media of the same type and incubation was continued another 35 days under the same temperature and light culturing conditions.
Duckweed fronds were grown in liquid Hoagland's medium containing 3% sucrose for two weeks at 23° C. under a 16 hr light/8 hr dark photoperiod with light intensity of approximately 40 μmol/m^2·sec. prior to experimentation. For callus induction, forty 100 ml portions of Murashige and Skoog medium with 3% sucrose, 0.15% Gelrite, and 0.4% Difco Bacto-agar were prepared with dicamba concentrations of 10, 20, 30, 40, 50, 60, 80, 100 μM and BA concentrations of 0.01, 0.05, 0.1, 0.5, and 1.0 μM. All media were pH adjusted to 5.8, autoclaved at 121° C. for 20 minutes, cooled, and each 100 ml was poured into 4, 100 mm×15 mm petri dishes.
as §1, with “An eight dicamba concentrations×five BA” for “A three 2,4-D concentrations×six BA”, “design (40” for “design (18”, “The” for “The 72”, “After 28” for “After 27”, “another 45” for “another 35”
Duckweed fronds were grown in liquid Schenk and Hildebrandt medium containing 1% sucrose for two weeks at 23° C. under a 16 hr light/8 hr dark photoperiod with light intensity of approximately 40 μmol/m^2·sec prior to experimentation. For callus induction, three basal media were tested: Murashige and Skoog, Schenk and Hildebrandt, and N6. Benzyladenine was used as the cytokinin at a concentration of 1 μM. The auxin concentrations varied with auxin type. For the relatively strong auxins, 2,4-D and dicamba, concentrations were 0, 1, 5, 10 and 20 μM. For weak auxins, NAA and IBA, the concentrations were 0, 5, 10, 20 and 50 μM. For each medium dose-response experiment, 2 liters of basal medium were prepared with BA and the pH adjusted to 5.8. The volume was aliquoted as 20, 100 ml portions. To each of these portions, the appropriate amount of auxin was added and the medium was adjusted to 0.15% Gelrite, and 0.4% Difco Bacto-agar. The media were autoclaved for 30 minutes at 121° C., cooled and 4, 100 mm×15 mm petri dishes were poured from each 100 ml portion.
A 3 media×4 auxin×5 concentration combinations, 60 treatment, randomized dose-response experimental design was used. The design was replicated two times, with one petri dish per replication and 5 fronds per petri dish.

In test [3] the test system is Lemna gibba G3. The experiment in a line: GUS expression in fronds after co-cultivation with Agrobacterium tumefaciens AT656 (histochemical staining). Type of test: cell-based. As for the experimental part:
Duckweed fronds were grown on liquid Schenk and Hildebrandt medium containing 1% sucrose with and without 10 μM indoleacetic acid (IAA), a concentration sufficient to increase proliferation rate. Fronds were grown in 25 ml aliquots of medium in 125 ml flasks, at 23° C. under a 16 hr light/8 hr dark photoperiod with light intensity of approximately 40 μmol/m^2·sec. For co-cultivation, 500 ml of Schenk and Hildebrandt medium containing 1% sucrose, 0.8% agar, 20 mg/L acetosyringone, and with and without 10 μM indoleacetic acid was prepared, pH adjusted to 5.6, autoclaved at 121° C. for 30 minutes, and cooled. Filter-sterilized solutions of acetosyringone, and acetosyringone and indoleacetic acid were added to the cooled medium, to the final, appropriate concentrations. Twenty, 100 mm×15 mm petri dishes were poured from the cooled medium.
A randomized block, experimental design with 2 bacterial strain treatments×2 frond growth media, with 5 replications, with one petri dish per replication, and 20 fronds per petri dish was used. For inoculation, bacteria of each strain were separately resuspended as described in Example 21. For inoculation, individual fronds were separated from clumps, each turned abaxial side up and wounded with a sterile scalpel in the meristematic regions, then transferred to bacterial suspensions of either AT656 or EHA101pJR1, and incubated for 10–15 minutes. For co-cultivation, fronds were transferred to solid Schenk and Hildebrandt medium with 1% sucrose, 0.8% agar and 100 μM acetosyringone with and without 10 μM indoleacetic acid as described above, abaxial side down.
The fronds were co-cultivated for 4 days at 23° C. under a 16 hr light/8 hr dark photoperiod with light intensity of approximately 40 μmol/m^2·sec. The fronds from two plates from each of the four treatments were stained for GUS expression.
Lemna gibba G3 fronds were grown for two weeks on liquid. Schenk and Hildebrandt medium containing 1% sucrose and with or without 10 μM indoleacetic acid in 25 ml aliquots in 125 ml flasks, at 23° C. under a 16 hr light/8 hr dark photoperiod with light intensity of approximately 40 μmol/m^2·sec prior to experimentation. For co-cultivation, 900 ml of Schenk and Hildebrandt medium containing 1% sucrose, 0.8% agar, with and without 10 μM indoleacetic acid, and 20 mg/L acetosyringone was prepared, the pH was adjusted to 5.6, the medium autoclaved at 121° C. for 30 minutes, and cooled. Filter-sterilized solutions of acetosyringone and indoleacetic acid were added to the appropriate, final medium concentrations. Thirty-six, 100 mm×15 mm petri dishes were poured from the cooled medium. Three bacterial media: 1) AB minimal containing 1.6% agar (AB), Difco potato dextrose medium with 1.6% agar (PDA), and mannitol glutamine (Roberts and Kerr, Physiol. […]

For test [4], the system named is L. minor strains 8744 and 8627. The experiment in a line: Callus induction from Lemna minor fronds, auxin and cytokinin type and concentration. The test is classed as cell-based. The following applies: MS medium, 6 weeks. The procedure:
In the auxin type and concentration experiment, four auxins: 2,4-D, NAA, IBA and dicamba were tested, each at four concentrations: 2, 5, 10 and 20 μM, for their ability to induce callus formation from L. minor strains 8744 and 8627. The basal medium used was MS and media and experimental protocol was basically that followed in Example 10. Fronds used in this experiment were grown for 2 weeks prior to plating on callus induction medium under 3 different culture conditions: 1) SH medium without plant growth regulators, 2) F medium with 24 μM 2,4-D and 2 μM 2-iP, and 3) SH medium with 24 μM 2,4-D and 2 μM 2-iP. Fronds were separated, the roots cut off and then plated on induction medium. The fronds were incubated under conditions given in Example 8 for 6 weeks at which time cultures were evaluated for the presence or absence of callus induction, the degree to which the callus proliferated, and the basic morphology of the callus present.
In the cytokinin type and concentration experiment, four cytokinins: BA, kinetin, 2-iP, and thidiazuron were tested, each at five concentrations: 0.05, 0.1, 0.5, 1 and 5 μM, for their ability to induce callus formation from L. minor strains 8744 and 8627. The basal medium used was MS and the media and experimental protocol were basically as described in Example 11. Fronds used in this experiment were grown for 2 weeks prior to plating on callus induction medium under 3 different culture conditions: 1) SH medium without plant growth regulators, 2) F medium with 24 μM 2,4-D and 2 μM 2-iP, and 3) SH medium with 24 μM 2,4-D and 2 μM 2-iP. Fronds were separated, the roots cut off and then plated on induction medium. The fronds were incubated under conditions given in Example 8 for 6 weeks at which time cultures were evaluated for the presence or absence of callus induction, the degree to which the callus proliferated, and the basic morphology of the callus.

Setting [5] is: half-strength SH with 10 μM BA only.

As to `O=C(O)CCCc1c[nH]c2ccccc12` [IBA, indolebutyric acid], the “effect on the timing or ability of callus to regenerate fronds” value in test [1] (1 μM IBA added to medium with 10 μM BA) was “had no effect”.

`O=C(O)Cc1cccc2ccccc12` [NAA, naphthaleneacetic acid]: in test [2] (MS medium, 1 μM BA, five weeks), the “concentration giving the greatest callus induction” value amounted to 10 µM.

In the case of `O=C(Nc1ccccc1)Nc1cnns1` [TDZ, thidiazuron], the “frequency of callus induction” value in test [2] (cytokinin 0-5 μM with 20 μM 2,4-D, MS medium, five weeks) is reported as “greatest frequency of callus induction”.

Consider `O=C(O)Cc1c[nH]c2ccccc12` [IAA, indoleacetic acid], for which the “effect on frequency of GUS expression after co-cultivation” value in test [3] (fronds grown on 10 μM indoleacetic acid prior to inoculation, 4 days co-cultivation) is given as “increased the frequency of GUS expression”. Moreover, in test [3] (fronds grown on SH medium with indoleacetic acid, averaged over PDA and MGL bacterial media), the “frequency of GUS expression in meristematic tissue” value is recorded as “approximately 17%”. In test [3] (medium containing 10 μM IAA, 4 days co-cultivation (20% without IAA)), the “co-cultivated fronds showing GUS expression” value turned out to be 48%.

As for `COc1c(Cl)ccc(Cl)c1C(=O)O` [dicamba], in test [2] (auxin with 1 μM BA, five weeks), the “compact Type I callus induction on MS medium” value was “some degree of callus induction” and the “compact Type I callus induction on N6 medium” value was “produced callus”. In test [2] (dicamba 10-100 μM with BA 0.01-1.0 μM, Murashige and Skoog medium, 73 days), the callus proliferation is on record as “callus proliferation was poor”. Moreover, the “concentration above which callus proliferation did not occur” value in test [2] (dicamba with BA 0.01-1.0 μM, Murashige and Skoog medium, 73 days) was “above 30 μM”. In test [4] (strain 8744, auxin experiment), the “concentration at which callus induction was observed” value is 20 µM.

As to `c1ccc(CNc2ncnc3nc[nH]c23)cc1` [BA, benzyladenine], in test [1] (setting [5]), the “callus growth compared with half-strength SH without plant growth regulators” value is “callus growth was faster” and the “time to frond regeneration compared with half-strength SH” value is “regeneration took longer”. For the same molecule, the callus induction in test [4] (inducing auxin at 2, 5, 10, 20 μM, strains 8744 and 8627) was “not observed”.

Take `OC[C@@H](O)[C@@H](O)[C@H](O)[C@H](O)CO` [mannitol]: the “concentration in bacterial resuspension solution giving the highest frequencies of GUS expression” value in test [3] (0, 0.2, 0.4, 0.6, 0.8 M tested, regardless of media, 4 days co-cultivation in the dark) was 0.6 M.
